Earlier results on one molecule are cited in patent publication US20020010164A1, “Low oxygen content compositions of 1alpha, 25-dihydroxycholecalciferol” (priority 1999, published 2002).

`C=C1/C(=C\C=C2/CCCC3(C)C2CCC3C(C)CCCC(C)(C)O)CC(O)CC1O` (stereo not drawn) [1α, 25-dihydroxycholecalciferol]: the “solubility in organic solvents” value (organic solvents) was “soluble”. For the same molecule, the solubility in water result (water) was “practically insoluble”.
